Like-named read-outs stand apart in the source and are kept apart here.
How the values were obtained:
[1] = test system: C4-2B/ENZR; assay: Cytotoxic activity test (MTT) on C4-2B/ENZR prostate cancer cells; assay type: cell-based, human; details: C4-2B/ENZR cells
Experimental: (§1) All prostate cancer cells were cultured with a RPMI-1640 medium containing 10% calf serum, 100 units of penicillin per milliliter and 100 µg/mL of streptomycin in a constant temperature incubator containing 5% carbon dioxide at a saturated humidity of 37° C.
(§2) Cells in the logarithmic phase of growth were taken and cultured in 96-well plates for 24 hours (5×10^3 cells/well), then treated with different concentrations of the compounds to be tested, and incubated by MTT method for 4 hours. The supernatant was removed by centrifugation, the MTT crystals were dissolved by adding DMSO, and the absorbance value was measured by an enzyme-linked immunosorbent assay at a wavelength of 570 nm. The cytotoxic activity of the compounds to be tested on cancer cells was expressed as IC50.

[2] = test system: Vcap-CRPC; assay: Cytotoxic activity test (MTT) on Vcap-CRPC prostate cancer cells; assay type: cell-based, human; details: Vcap-CRPC cells, MTT, read-out: Prostate cancer cells IC50 Vcap-CRPC
Experimental: as §1, §2

[3] = test system: 22RV1; assay: Cytotoxic activity test (MTT) on 22RV1 prostate cancer cells; assay type: cell-based, human; details: 22RV1 cells, MTT, read-out: Prostate cancer cells IC50 22RV1
Experimental: as §1, §2

[4] = test system: LNcap; assay: Cytotoxic activity test (MTT) on LNcap prostate cancer cells; assay type: cell-based, human; details: LNcap cells, MTT, read-out: Prostate cancer cells IC50 LNcap
Experimental: as §1, §2

[5] = test system: RWPE-1; assay: Cytotoxic activity test (MTT) on normal human prostate cell RWPE-1; assay type: cell-based
Experimental: as §1, §2

[6] = test system: prostate cancer cells; assay: Inhibitory activity on a variety of prostate cancer cells (Table 1); assay type: cell-based, human; details: structure-activity statements on Table 1
Experimental: as §1, §2

[7] = test system: C4-2B; assay: Cytotoxic activity test (MTT) on C4-2B prostate cancer cells; assay type: cell-based, human; details: C4-2B cells
Experimental: as §1, §2

[8] = normal human prostate cell RWPE-1, MTT, read-out: Normal cells RWPE-1 (IC50)

| SMILES | IC50 [1] | IC50 [2] | IC50 [3] | IC50 [4] | IC50 [5, 8] | IC50 [7] | other results |
| --- | --- | --- | --- | --- | --- | --- | --- |
| C=C(C)[C@@]12OC3(/C=C/C=C/CCCCC)O[C@@H]1[C@@H]1[C@@H]4O[C@]4(COC(C)=O)[C@@H](O)[C@]4(O)C(=O)C(C)=C[C@H]4[C@@]1(O3)[C@H](C)[C@H]2OC(C)=O [YH-24] | 67.3 nM | 76.2 nM | 45.8 nM | 48.2 nM | 21900 nM | – | – |
| C=C(C)[C@@]12OC3(/C=C/C=C/CCCCC)O[C@@H]1[C@@H]1[C@@H]4O[C@]4(COC(=O)c4ccccc4)[C@@H](O)[C@]4(O)C(=O)C(C)=C[C@H]4[C@@]1(O3)[C@H](C)[C@H]2OC(C)=O [YH-25] | – | – | – | – | – | – | IC50 ([1]; Homo sapiens): 2300 nM; inhibitory activity on prostate cancer cells (in words) [6]: significant decrease in activity; IC50 ([7]; Homo sapiens): 593 nM |
| C=C(C)C12OC3(c4ccccc4)OC1C1C4OC4(CO)C(O)C4(O)C(=O)C(C)CC4C1(O3)C(C)C2OC(C)=O (stereo not drawn) [YH-35] | 1.92 nM | 64.2 nM | 144 nM | 4.82 nM | 42900 nM | 0.426 nM | – |
| C=C(C)C12OC3(c4ccccc4)OC1C1C4OC4(CO)C(O)C4(O)C(=O)C(C)CC4C1(O3)C(C)C2OC(=O)c1ccccc1 (stereo not drawn) [YH-36] | – | – | 42.5 nM | – | 14600 nM | – | – |
| CCCCCCCCCC12O[C@@H]3[C@@H]4[C@@H]5O[C@]5(CO)[C@@H](O)[C@]5(O)C(=O)C(C)=C[C@H]5[C@@]4(O1)[C@H](C)[C@@H](OC(C)=O)[C@]3(C(C)C)O2 [YH-37] | – | – | – | – | 10300 nM | – | – |
| CCCCCCCCCC12O[C@@H]3[C@@H]4[C@@H]5O[C@]5(CO)[C@@H](O)[C@]5(O)C(=O)[C@@H](C)C[C@H]5[C@@]4(O1)[C@H](C)[C@@H](OC(C)=O)[C@]3(C(C)C)O2 [YH-38] | – | – | – | – | 20600 nM | – | IC50 ([3]; Homo sapiens): 5.42 nM |
| CC(C)[C@@]12OC3(c4ccccc4)O[C@@H]1[C@@H]1[C@@H]4O[C@]4(CO)[C@@H](O)[C@]4(O)C(=O)[C@@H](C)C[C@H]4[C@@]1(O3)[C@H](C)[C@H]2OC(=O)c1ccccc1 [YH-39] | – | – | – | – | 18500 nM | – | IC50 ([3]; Homo sapiens): 6.73 nM |
| CC1=C[C@@H]2[C@@](O)(C1=O)[C@H](O)[C@@]1(CO)O[C@H]1[C@H]1[C@H]3OC4(c5ccccc5)O[C@@]3(C(C)C)[C@H](OC(=O)c3ccccc3)[C@@H](C)[C@@]12O4 [YH-40] | – | – | – | – | 20300 nM | – | – |
| C=C(C)[C@@]12OC3(C)O[C@@H]1[C@@H]1C=C(CO)C[C@]4(O)C(=O)C(C)=C[C@H]4[C@@]1(O3)[C@H](C)[C@H]2OC(=O)c1ccccc1 [YH-44] | 641 nM | 306 nM | 4650 nM | 74.8 nM | 17400 nM | 193 nM | – |
| C=C(C)[C@@]12OC3(c4ccccc4)O[C@@H]1[C@@H]1[C@@H](Br)[C@@](O)(CO)[C@@H](O)[C@]4(O)C(=O)C(C)=C[C@H]4[C@@]1(O3)[C@H](C)[C@H]2OC(=O)c1ccccc1 [YH-53] | – | – | – | – | – | – | IC50 ([5]; Homo sapiens, RWPE-1, read-out: Normal cells RWPE-1 (IC50)): 56300 nM |
| C=C(C)C1(O)C(OC(=O)c2ccccc2)C(C)C2(O)C(C(O)C(O)(CO)C(O)C3(O)C(=O)C(C)=CC32)C1OC(=O)c1ccccc1 (stereo not drawn) [YH-56] | 2690 nM | 15400 nM | 47100 nM | 13100 nM | 35100 nM | 4470 nM | – |
| C=C(C)C1(O)C(O)C2C3OC3(CO)C(O)C3(O)C(=O)C(C)=CC3C2(O)C(C)C1OC(=O)c1ccccc1 (stereo not drawn) [YH-57] | 1870 nM | 40800 nM | 46700 nM | 4820 nM | 41100 nM | 2320 nM | – |
| C=C(C)C1(O)C(O)C2C3OC3(CO)C(O)C3(O)C(=O)C(C)=CC3C2(O)C(C)C1OC(C)=O (stereo not drawn) [YH-58] | 40200 nM | – | – | – | – | 33600 nM | – |
| C=C(C)[C@@]1(O)[C@H](OC(=O)c2ccccc2)[C@@H]2[C@@H]3O[C@]3(CO)[C@@H](O)[C@]3(O)C(=O)C(C)=CC3[C@@]2(O)[C@H](C)[C@H]1OC(=O)c1ccccc1 (stereo partly drawn) [YH-60] | – | – | – | – | 4810 nM | – | IC50 ([1]; Homo sapiens): 73.9 nM; IC50 ([2]; Homo sapiens): 911 nM; IC50 ([3]; Homo sapiens): 3890 nM; IC50 ([4]; Homo sapiens): 2.85 nM; IC50 ([7]; Homo sapiens): 49.4 nM |
| C=C(C)C1(O)C(O)C(C)C2(O)C(C3OC3(CO)C(O)C3(O)C(=O)C(C)=CC32)C1OC(=O)C=CC=CCCCCC (stereo not drawn) [YH-61] | 543 nM | – | – | – | – | 189 nM | – |
